Like-named read-outs stand apart in the source and are kept apart here.
Tests used:
[1] = system: Antioxidant response element; test: MitoOxTox: oxidative stress response in AREc32; conditions: for Specificity ratio (SRbaseline) SRARE: against baseline cytotoxicity; for Specificity ratio (SRcytotoxicity) SRARE: against experimental cytotoxicity; for ECIR1.5, ARE: effect; for ECIR1.5, ARE / ECIR1.5, ARE (M): induction ratio 1.5; for log(1/EC10) AREc32: input of the ToxPi score, values up to 1.00; for SR (ARE): specificity ratio; for EC10, linear / logEC10: Bioassay ARE, dosing range all; for EC10, linear: linear model fit; for logEC10: log-logistic model fit
Excerpt: All bioassay media components and the ERα-UAS-bla GripTite and PPARγ-UAS-bla cells were obtained from Thermo Fisher Scientific (Waltham, MA, USA). AREc32 reporter gene cells based on MCF7 were provided by C. Roland Wolf (Cancer Research UK); AhR CALUX cells (H4L7.5c2 derived from H4IIe) were provided by Michael Denison (UC Davis, USA); and SH-SY5Y cells were purchased from Sigma-Aldrich.
(§1) Cell culture conditions and bioassay protocols including response detection are provided in Text S2.1–2.4 and Table S3. − Cell viability was determined from cell confluency using an IncuCyte S3 Live-Cell Analysis System (Sartorius AG, Essen, Germany) before and after exposure, except for SH-SY5Y cells (live–dead staining with Nuclear Green LcS1 and propidium iodide, Abcam, UK). For metabolic activation experiments, cell viability was assessed using the ToxBLAzer DualScreen Kit (Thermo Fisher Scientific) to capture the remaining toxicity in ERα-UAS-bla GripTite after treatment with the aCYP catalyst (details in Text S2.4).
For ARE, the concentration that triggered an induction ratio of 1.5 (ECIR1.5) was used as the benchmark value, as detailed in Text S2.5. IC10 values also served as a threshold for data analysis in all assays; only concentrations below IC10 were considered when deriving EC10 or ECIR1.5. […]
S2: Cell culture and bioassays
S2.1: Cell Culturing Conditions
All suppliers and sources are given in detail in SI-Excel S3. The bioassay media for the different assays were prepared as follows: Assay medium for ER alpha-UAS-bla GripTite (ERα) and PPAR gamma-UAS-bla 293H (PPARγ) was prepared with 98% Opti-MEM, supplemented with 2% charcoal-stripped FBS, and 100 U/mL penicillin-streptomycin. MitoOxTox and AhR assay medium was comprised of 90% DMEM with GlutaMAX, supplemented with 10% FBS, and 100 U/mL penicillin-streptomycin. Neurotoxicity assay medium consisted of the neurobasal […]
(1 picture or pasted object on this page, not shown here) […]
medium, supplemented with 2% B-27 Supplement and 2 mM GlutaMAX Supplement. SH - SY5Y cells were differentiated with 10 µM all-trans retinoic acid prior to the assay.
S2.2: Cell Seeding and Incubation. For all bioassays, cell suspensions in the respective assay medium were dispensed into each well of 384-well plates using a MultiFlo Dispenser (Biotek, (now Agilent), Winooski, VT, U.S.). After seeding, the plates were incubated at 37° C and 5% CO₂ for […]. The final cell densities and plate types were as follows: Black poly-D-lysine coated 384-well plates (Product No. 354663, Corning Inc., NYC, U.S.) were used for PPARγ:
6500 cells/well, ERα: 5000 cells/well. White 384-well plates with a clear bottom (Product No.
781098, Greiner, Kremsmünster, Austria) were utilized for the MitoOxTox assay: 2650

Estrogen Receptor ERα = biological target: T1, Estrogen Receptor ERα (Homo sapiens, UniProt P03372); test: aCYP oxidation followed by ERα-UAS-bla GripTite assay (TK-Ratio of effect); format: cell-based; conditions: for EC10, after oxidation / EC10, before oxidation: ERα; for EC10, after oxidation: after abiotic CYP catalyst; for TKERα: TKERα-Ratio
T1 sequence (P03372 311-547 limits assumed): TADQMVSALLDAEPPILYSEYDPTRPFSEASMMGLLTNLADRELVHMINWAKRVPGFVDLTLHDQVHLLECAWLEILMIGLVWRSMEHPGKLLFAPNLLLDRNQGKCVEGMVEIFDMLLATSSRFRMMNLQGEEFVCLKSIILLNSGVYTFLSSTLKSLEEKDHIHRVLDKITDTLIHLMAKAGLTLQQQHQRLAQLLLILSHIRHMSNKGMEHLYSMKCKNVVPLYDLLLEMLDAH
Procedure: as §1, with “S2.4). […]” for “S2.4).”
The TK-Ratio method was used to evaluate the impact of abiotic CYP oxidation on the potency of tested compounds. […]
For experiments with the preceding aCYP activation, ERα cell viability was additionally calculated from the readout of the ToxBLAzer reagent. The ToxBLAzer assay was conducted following the manufacturer's instructions (Thermo Fisher, Waltham, MA, U.S.).13 Fluorescence intensity was recorded at the start of the assay ( Fwavelength(0h)) and after a 2-hour incubation at […]
Cell viability was assessed based on the red fluorescence signal at 665 nm, applying eq. S11 for normalization.
Cell viability = F665nm(2h, sample)-F665nm(0h, average cell-free) (S11) F665nm(2h, average unexposed)-F665nm(0h, average cell-free) […]
the specific endpoint to avoid artifacts from cytotoxicity burst. 15
S2.5: Concentration-response curves (CRCs)
To avoid bias from cytotoxicity burst at higher concentrations, all concentrations exceeding the IC10 for cytotoxicity were excluded in the CRC modeling of effects but otherwise cytotoxicity and effects were fitted with the same model equations (response stands for cytotoxicity or effect). For ERα, AhR, ARE and PPARγ preferably a linear model was fitted to the linear portion of CRC up to maximum 30% effect (eq. S12),16 but in some cases it was necessary to choose a sigmoidal log-concentration-response model, specifically a log-logistic model (eq. S13), to derive effect concentrations and cytotoxicity. For mitochondrial toxicity and neurotoxicity, the […]
are not reporter gene assays. Common practice when using log-logistic models, e.g., the model implemented in tcpl package in R,17, 18 is that the minima and maxima are also fitted and only median effect concentrations AC50 are derived. […]
concentrations (EC10) for both linear and log-sigmoidal CRCs to allow absolute comparisons at the same effect level and for TR and SR -analysis. This was done using the AutomatedBioassayScreening19 published by Braun et al.,20 which also included an algorithm to choose the best model between eq. S12 and eq. S13.
Response (%) = slope × C (S12) […]
logEC =logEC − 1 ∙log (max−min − 100%) (S14)

[2] = Abiotic CYP (aCYP) oxidation, remaining parent compound (Cparent-Ratio); conditions: for Cparent-Ratio Rep.1 %: Table S9, replicate 1; for Cparent-Ratio Rep.2 %: Table S9, replicate 2; for reduction of C parent after aCYP oxidation: 15 min, 30 °C
[3] = Arec32, read-out: EC10, linear transformed
[4] = Table S9, loss of parent after aCYP oxidation
[5] = Table S9, mean of two replicate experiments
[6] = Table S9, replicate 1, as fraction
[7] = Table S9, replicate 2, as fraction
[8] = Table S11, measured simultaneously with bioassay

O=C(OCc1ccccc1)c1ccc(O)cc1 [BzPB, Benzyl 4-hydroxybenzoate]
EC10 ([1]; Arec32, read-out: EC10, linear): 32.1 µM | EC10 [1, 3]: 16.7 µM | EC10 ([1]; Arec32, read-out: logEC10): 19.5 µM | Specificity ratio (SRbaseline) SRARE [1]: 1.73 | Specificity ratio (SRcytotoxicity) SRARE [1]: 4.62 | ECIR1.5, ARE [1]: 19.4 µM | ECIR1.5, ARE (M) [1]: 1.94 × 10^–5 M | log(1/EC10) AREc32 [1]: 1.00 | SR (ARE) [1]: < 10 | EC10, after oxidation (Estrogen Receptor ERα; Table S10, in M): 4.95E-06 | EC10, before oxidation (Estrogen Receptor ERα; Table S10, in M): 3.07E-06 | TKERα (Estrogen Receptor ERα; Table S10): 0.6192 | % Loss [2, 4]: -22% | Cparent-Ratio Mean [2, 5]: 1.22 | Cparent-Ratio Rep.1 % [2]: 115.59% | Cparent-Ratio Rep.1 [2, 6]: 1.16 | Cparent-Ratio Rep.2 % [2]: 128.10% | Cparent-Ratio Rep.2 [2, 7]: 1.28

C=CCOc1ccc(S(=O)(=O)c2ccc(O)cc2)cc1 [BPS-MAE, 4-[[4-(Allyloxy)phenyl]sulfonyl]phenol]
EC10, linear [1]: no effect | logEC10 [1]: no effect | EC10, after oxidation (Estrogen Receptor ERα; Table S10, in M): 1.28E-05 | EC10, before oxidation (Estrogen Receptor ERα; Table S10, in M): 1.26E-05 | TKERα (Estrogen Receptor ERα; Table S10): 0.9842 | % Loss [2, 4]: 1.47%

Cc1ccc(S(=O)(=O)NC(=O)Nc2ccc(Cc3ccc(NC(=O)NS(=O)(=O)c4ccc(C)cc4)cc3)cc2)cc1 [BTUM, 4,4'-Bis(p-tolylsulfonylureido)diphenylmethane]
EC10, linear [1]: no effect | logEC10 [1]: no effect | EC10, before oxidation (Estrogen Receptor ERα; Table S10): no effect | EC10, after oxidation (Estrogen Receptor ERα; Table S10): no effect | outcome of aCYP experiments (Estrogen Receptor ERα; both experimental setups): inconclusive results | reduction of C parent after aCYP oxidation [2]: 70% | % Loss [2, 4]: 70% | Cparent-Ratio Mean [2, 5]: 0.30 | Cparent-Ratio Rep.1 % [2]: 26.78% | Cparent-Ratio Rep.1 [2, 6]: 0.27 | Cparent-Ratio Rep.2 % [2]: 33.79% | Cparent-Ratio Rep.2 [2, 7]: 0.34 | % Loss ([2]; Table S11): 79% | Cparent-Ratio Mean [2, 8]: 0.21 | Cparent-Ratio Rep.1 [2, 8]: 0.23 | Cparent-Ratio Rep.2 [2, 8]: 0.18

CC(C)(c1ccc(O)cc1)c1ccc(O)cc1 [BPA, 4,4'-(Propane-2,2-diyl)diphenol, reference compound]
oxidative stress response (ARE activation) [1]: did not induce ARE | EC10 [1, 3]: 1510 µM | EC10, linear [1]: no effect | logEC10 [1]: masked by cytotoxicity | estrogenic activity after aCYP oxidation (Estrogen Receptor ERα): remained unchanged or decreased | EC10, after oxidation (Estrogen Receptor ERα; Table S10, in M): 4.48E-07 | EC10, before oxidation (Estrogen Receptor ERα; Table S10, in M): 3.70E-07 | TKERα (Estrogen Receptor ERα; Table S10): 0.827 | EC10, after oxidation (Estrogen Receptor ERα; Table S11, in M): 3.06E-07 | EC10, before oxidation (Estrogen Receptor ERα; Table S11, in M): 3.74E-07 | TKERα (Estrogen Receptor ERα; Table S11): 1.22 | reduction of C parent after aCYP oxidation [2]: 15% | % Loss [2, 4]: 15% | Cparent-Ratio Mean [2, 5]: 0.85 | Cparent-Ratio Rep.1 % [2]: 86.04% | Cparent-Ratio Rep.1 [2, 6]: 0.86 | Cparent-Ratio Rep.2 % [2]: 84.76% | Cparent-Ratio Rep.2 [2, 7]: 0.85 | % Loss ([2]; Table S11): 11% | Cparent-Ratio Mean [2, 8]: 0.89 | Cparent-Ratio Rep.1 [2, 8]: 0.90 | Cparent-Ratio Rep.2 [2, 8]: 0.88

CC1(C)C(O)C(C)(C)C1O (racemic) [r-TMCD, 2,2,4,4-Tetramethyl-1,3-cyclobutanediol (racemate)]
EC10, linear [1]: no effect | logEC10 [1]: no effect | EC10, before oxidation (Estrogen Receptor ERα; Table S10, in M): 1.18E-02 | % Loss [2, 4]: 1.72% | Cparent-Ratio Mean [2, 5]: 0.98 | Cparent-Ratio Rep.1 % [2]: 94.58% | Cparent-Ratio Rep.1 [2, 6]: 0.95 | Cparent-Ratio Rep.2 % [2]: 101.99% | Cparent-Ratio Rep.2 [2, 7]: 1.02

CC(C)c1cc(C(C)(C)c2ccc(O)c(C(C)C)c2)ccc1O [BPG, 2,2-Bis(4-hydroxy-3-isopropylphenyl)propane]
EC10, linear [1]: no effect | logEC10 [1]: no effect | EC10, after oxidation (Estrogen Receptor ERα; Table S10, in M): 3.40E-06 | EC10, before oxidation (Estrogen Receptor ERα; Table S10, in M): 9.02E-07 | TKERα (Estrogen Receptor ERα; Table S10): 0.2649 | EC10, after oxidation (Estrogen Receptor ERα; Table S11, in M): 1.51E-05 | EC10, before oxidation (Estrogen Receptor ERα; Table S11, in M): 9.71E-06 | TKERα (Estrogen Receptor ERα; Table S11): 0.64 | % Loss [2, 4]: 15% | Cparent-Ratio Mean [2, 5]: 0.85 | Cparent-Ratio Rep.1 % [2]: 67.85% | Cparent-Ratio Rep.1 [2, 6]: 0.68 | Cparent-Ratio Rep.2 % [2]: 102.05% | Cparent-Ratio Rep.2 [2, 7]: 1.02 | % Loss ([2]; Table S11): 34% | Cparent-Ratio Mean [2, 8]: 0.66 | Cparent-Ratio Rep.1 [2, 8]: 0.79 | Cparent-Ratio Rep.2 [2, 8]: 0.53

COC(=O)C(c1ccc(O)cc1)c1ccc(O)cc1 [Bz, Methyl bis(4-hydroxyphenyl)acetate]
EC10 [1, 3]: 2200 µM | EC10, linear [1]: no effect | logEC10 [1]: no effect | EC10, after oxidation (Estrogen Receptor ERα; Table S10, in M): 1.36E-06 | EC10, before oxidation (Estrogen Receptor ERα; Table S10, in M): 9.90E-07 | TKERα (Estrogen Receptor ERα; Table S10): 0.7263 | % Loss [2, 4]: -7% | Cparent-Ratio Mean [2, 5]: 1.07 | Cparent-Ratio Rep.1 % [2]: 113.92% | Cparent-Ratio Rep.1 [2, 6]: 1.14 | Cparent-Ratio Rep.2 % [2]: 100.34% | Cparent-Ratio Rep.2 [2, 7]: 1.00

CC(C)Oc1ccc(S(=O)(=O)c2ccc(O)cc2)cc1 [D8, 4-((4-Isopropoxyphenyl)sulfonyl)phenol]
EC10 ([1]; Arec32, read-out: EC10, linear): 1080 µM | EC10 [1, 3]: 932 µM | EC10 ([1]; Arec32, read-out: logEC10): 1230 µM | Specificity ratio (SRbaseline) SRARE [1]: 0.11 | Specificity ratio (SRcytotoxicity) SRARE [1]: 1.77 | ECIR1.5, ARE [1]: 1220 µM | ECIR1.5, ARE (M) [1]: 1.22 × 10^–3 M | log(1/EC10) AREc32 [1]: 0.62 | SR (ARE) [1]: < 10 | EC10, before oxidation (Estrogen Receptor ERα; Table S10, in M): 1.21E-05 | % Loss [2, 4]: -13% | Cparent-Ratio Mean [2, 5]: 1.13 | Cparent-Ratio Rep.1 % [2]: 114.96% | Cparent-Ratio Rep.1 [2, 6]: 1.15 | Cparent-Ratio Rep.2 % [2]: 110.37% | Cparent-Ratio Rep.2 [2, 7]: 1.10
